Read-outs that look alike come from different tables or passages of the source.
Experiments:
HDAC1 [1] = target: T1, HDAC1 (Homo sapiens (Human), UniProt Q13547); assay: HDAC1 in vitro inhibition, dose response; format: biochemical
HDAC2 [2] = target: T2, HDAC2 (Homo sapiens (Human), UniProt Q92769); assay: HDAC2 in vitro inhibition, dose response; format: biochemical
HDAC3 [3] = target: T3, HDAC3 (Homo sapiens (Human), UniProt O15379); assay: HDAC3 in vitro inhibition, dose response; format: biochemical
T3 sequence (O15379 whole entry): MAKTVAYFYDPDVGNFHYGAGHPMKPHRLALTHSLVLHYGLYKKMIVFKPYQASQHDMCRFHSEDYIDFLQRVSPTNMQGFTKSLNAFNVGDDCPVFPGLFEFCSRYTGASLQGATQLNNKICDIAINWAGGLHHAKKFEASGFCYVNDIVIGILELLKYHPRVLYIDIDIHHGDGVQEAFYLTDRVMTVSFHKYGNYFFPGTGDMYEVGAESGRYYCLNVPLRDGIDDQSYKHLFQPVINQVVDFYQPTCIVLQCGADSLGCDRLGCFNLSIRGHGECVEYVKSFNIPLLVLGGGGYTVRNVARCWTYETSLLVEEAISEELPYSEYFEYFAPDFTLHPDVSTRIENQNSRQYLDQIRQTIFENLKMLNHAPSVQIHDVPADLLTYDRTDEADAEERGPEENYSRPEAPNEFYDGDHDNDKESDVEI
T3 sequence (Q9Y618 395-489 partner): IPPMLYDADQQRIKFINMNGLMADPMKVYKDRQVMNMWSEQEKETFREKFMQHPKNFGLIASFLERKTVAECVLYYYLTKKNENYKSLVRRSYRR

HDAC8 = HDAC8 (Homo sapiens (Human), UniProt Q9BY41); assay: HDAC8 in vitro inhibition, dose response; format: biochemical
HDAC8, sequence (Q9BY41 whole entry): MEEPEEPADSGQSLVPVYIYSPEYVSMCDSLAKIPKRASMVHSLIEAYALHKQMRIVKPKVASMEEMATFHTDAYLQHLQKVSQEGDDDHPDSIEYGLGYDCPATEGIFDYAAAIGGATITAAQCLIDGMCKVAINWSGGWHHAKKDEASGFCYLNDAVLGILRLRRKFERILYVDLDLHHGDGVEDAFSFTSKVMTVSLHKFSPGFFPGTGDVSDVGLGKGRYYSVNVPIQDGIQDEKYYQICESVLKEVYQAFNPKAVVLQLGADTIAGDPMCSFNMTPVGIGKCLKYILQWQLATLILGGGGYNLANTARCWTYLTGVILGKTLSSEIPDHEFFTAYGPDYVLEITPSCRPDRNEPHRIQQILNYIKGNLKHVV

HDAC6 = HDAC6 (Homo sapiens (Human), UniProt Q9UBN7); assay: HDAC6 in vitro inhibition, dose response; format: biochemical
HDAC6, sequence (Q9UBN7 whole entry): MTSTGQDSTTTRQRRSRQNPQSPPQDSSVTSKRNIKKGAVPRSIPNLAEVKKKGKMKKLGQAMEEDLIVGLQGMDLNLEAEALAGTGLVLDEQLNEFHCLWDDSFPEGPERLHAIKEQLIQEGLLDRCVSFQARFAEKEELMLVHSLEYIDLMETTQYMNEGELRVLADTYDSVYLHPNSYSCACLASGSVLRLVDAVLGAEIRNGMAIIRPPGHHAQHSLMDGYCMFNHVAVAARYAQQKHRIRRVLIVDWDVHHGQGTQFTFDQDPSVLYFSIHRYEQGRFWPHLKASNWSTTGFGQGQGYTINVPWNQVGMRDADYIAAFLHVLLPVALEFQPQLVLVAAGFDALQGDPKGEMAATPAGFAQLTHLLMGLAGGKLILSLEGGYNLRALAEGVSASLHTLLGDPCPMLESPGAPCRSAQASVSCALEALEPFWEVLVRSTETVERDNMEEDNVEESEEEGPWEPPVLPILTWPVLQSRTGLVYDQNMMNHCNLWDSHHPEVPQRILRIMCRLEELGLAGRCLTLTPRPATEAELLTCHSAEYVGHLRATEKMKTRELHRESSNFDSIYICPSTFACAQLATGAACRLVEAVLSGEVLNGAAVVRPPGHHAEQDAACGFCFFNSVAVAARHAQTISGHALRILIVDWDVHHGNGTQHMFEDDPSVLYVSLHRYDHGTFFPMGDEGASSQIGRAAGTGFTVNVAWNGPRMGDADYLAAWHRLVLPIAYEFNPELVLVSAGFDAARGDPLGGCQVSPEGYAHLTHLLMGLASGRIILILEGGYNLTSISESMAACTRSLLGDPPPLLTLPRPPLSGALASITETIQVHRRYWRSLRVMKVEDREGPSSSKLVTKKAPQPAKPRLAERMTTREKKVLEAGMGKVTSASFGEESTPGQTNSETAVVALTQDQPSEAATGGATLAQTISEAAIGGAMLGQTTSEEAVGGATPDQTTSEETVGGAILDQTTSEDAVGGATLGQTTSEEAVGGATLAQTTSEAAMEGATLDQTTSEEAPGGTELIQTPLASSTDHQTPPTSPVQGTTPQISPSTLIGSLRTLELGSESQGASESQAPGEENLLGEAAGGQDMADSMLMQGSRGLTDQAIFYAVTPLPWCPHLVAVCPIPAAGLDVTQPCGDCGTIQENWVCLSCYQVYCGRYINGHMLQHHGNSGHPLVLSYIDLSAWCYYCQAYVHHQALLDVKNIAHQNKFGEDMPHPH

HDAC10 = HDAC10 (Homo sapiens (Human), UniProt Q969S8); assay: HDAC10 in vitro inhibition, dose response; format: biochemical; details: Table 1; read-out: Inhibitory Potency (IC50) HDAC 10
HDAC10, sequence (Q969S8 whole entry): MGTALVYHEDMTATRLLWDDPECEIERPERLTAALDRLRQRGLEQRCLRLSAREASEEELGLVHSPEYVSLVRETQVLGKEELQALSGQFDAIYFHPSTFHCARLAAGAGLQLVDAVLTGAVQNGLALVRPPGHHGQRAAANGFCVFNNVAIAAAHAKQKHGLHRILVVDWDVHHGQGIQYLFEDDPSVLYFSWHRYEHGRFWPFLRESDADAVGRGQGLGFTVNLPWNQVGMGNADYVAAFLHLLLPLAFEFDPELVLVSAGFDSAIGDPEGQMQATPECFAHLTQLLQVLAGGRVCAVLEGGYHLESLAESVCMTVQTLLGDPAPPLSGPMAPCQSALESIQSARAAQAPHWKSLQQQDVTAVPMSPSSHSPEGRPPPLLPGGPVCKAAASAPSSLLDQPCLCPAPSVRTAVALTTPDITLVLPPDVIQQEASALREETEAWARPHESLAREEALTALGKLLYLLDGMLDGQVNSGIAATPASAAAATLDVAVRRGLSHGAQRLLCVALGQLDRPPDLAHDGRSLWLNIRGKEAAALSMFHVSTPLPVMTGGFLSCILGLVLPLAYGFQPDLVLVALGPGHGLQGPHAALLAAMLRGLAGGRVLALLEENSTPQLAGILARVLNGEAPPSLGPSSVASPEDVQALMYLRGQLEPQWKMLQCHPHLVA

HDAC11 = HDAC11 (Homo sapiens (Human), UniProt Q96DB2); assay: HDAC11 in vitro inhibition, dose response; format: biochemical; details: Table 1; read-out: Inhibitory Potency (IC50) HDAC 11
HDAC4 = HDAC4 (Homo sapiens (Human), UniProt P56524); assay: HDAC4 in vitro inhibition, dose response; format: biochemical; details: Table 1; read-out: Inhibitory Potency (IC50) HDAC 4
HDAC7 = HDAC7 (Homo sapiens (Human), UniProt Q8WUI4); assay: HDAC7 in vitro inhibition, dose response; format: biochemical; details: Table 1; read-out: Inhibitory Potency (IC50) HDAC 7
HDAC9 = HDAC9 (Homo sapiens (Human), UniProt Q9UKV0); assay: HDAC9 in vitro inhibition, dose response; format: biochemical; details: Table 1; read-out: Inhibitory Potency (IC50) HDAC 9
HDAC9, sequence (Q9UKV0 whole entry): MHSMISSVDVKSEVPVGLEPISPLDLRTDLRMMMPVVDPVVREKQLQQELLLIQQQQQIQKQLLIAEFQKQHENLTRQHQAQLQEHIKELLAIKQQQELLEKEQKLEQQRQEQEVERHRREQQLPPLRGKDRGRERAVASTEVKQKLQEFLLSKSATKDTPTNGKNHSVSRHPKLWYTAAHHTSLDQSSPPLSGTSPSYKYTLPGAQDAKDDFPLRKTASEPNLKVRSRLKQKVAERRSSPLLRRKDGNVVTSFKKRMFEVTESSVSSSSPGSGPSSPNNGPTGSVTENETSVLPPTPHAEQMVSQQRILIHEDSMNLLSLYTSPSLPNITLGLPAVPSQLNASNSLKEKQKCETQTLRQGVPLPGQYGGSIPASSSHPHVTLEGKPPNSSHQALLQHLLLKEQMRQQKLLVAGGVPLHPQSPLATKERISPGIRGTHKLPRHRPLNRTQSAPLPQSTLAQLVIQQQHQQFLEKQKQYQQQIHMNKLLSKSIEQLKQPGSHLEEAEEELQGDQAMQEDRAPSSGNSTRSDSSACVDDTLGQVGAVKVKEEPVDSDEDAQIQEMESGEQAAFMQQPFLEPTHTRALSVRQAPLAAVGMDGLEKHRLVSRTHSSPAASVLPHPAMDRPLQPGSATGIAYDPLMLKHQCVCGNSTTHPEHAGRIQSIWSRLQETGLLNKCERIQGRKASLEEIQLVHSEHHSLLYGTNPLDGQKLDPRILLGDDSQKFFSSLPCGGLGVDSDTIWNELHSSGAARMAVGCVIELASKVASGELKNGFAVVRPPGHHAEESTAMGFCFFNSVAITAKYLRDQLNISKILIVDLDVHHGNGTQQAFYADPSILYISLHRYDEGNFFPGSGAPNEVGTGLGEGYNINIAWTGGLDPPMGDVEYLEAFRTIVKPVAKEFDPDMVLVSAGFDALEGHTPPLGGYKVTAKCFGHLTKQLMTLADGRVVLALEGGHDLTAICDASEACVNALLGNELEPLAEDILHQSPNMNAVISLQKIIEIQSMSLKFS

HDAC1 [4] = target: T1, HDAC1; assay: HDAC-1 inhibition potency, luminescence readout; format: biochemical; details: Table 6, luminescence readout
Description: (§1) Compounds were examined for their HDAC inhibitory activity and their effect on cancer cell viability (MDA-MB-231 cells).

HDAC2 [5] = target: T2, HDAC2; assay: HDAC-2 inhibition potency, luminescence readout; format: biochemical; details: Table 6, luminescence readout
Description: as §1

HDAC3 [6] = target: T3, HDAC3; assay: HDAC-3 inhibition potency, luminescence readout; format: biochemical; details: Table 6, luminescence readout
MDA-MB-231 cells [7] = assay: Cancer cell viability (CellTiter-Glo); format: cell-based; details: Homo sapiens, MDA-MB-231, read-out: Cancer cell (MDA-MB-231) killing IC50
MDA-MB-231 cells [8] = assay: Global gene expression (Affymetrix Human Transcriptome Array 2.0) with Ingenuity Pathway Analysis; format: cell-based; details: 24 h; for Predicated activation state, Biological Functions / Predicated activation state, Upstream Regulators: 1 μM
HCT116 cells [9] = assay: Histone acetylation by Western blotting; format: cell-based
HCT116 and A549 cells = assay: Acetylation of non-histone proteins by Western blotting; format: cell-based
HCT116 cells [10] = assay: H3K18ac after 6 h pulse treatment and drug washout; format: cell-based
MDA-MB-231 cells [11] = assay: Cell cycle analysis by FACS; format: cell-based; details: MDA-MB-231, 24 h, dose-dependent
HDAC1 [12] = target: T1, HDAC1; assay: In vitro HDAC1 inhibition of HTS hits (HDAC I/II-Glo reagents); format: biochemical; details: HTS follow-up
CDKN1A = assay: qPCR of CDKN1A encoding p21; format: cell-based; details: MDA-MB-231
HepG2 cells [13] = test system: HepG2 cells
[14] = mouse, in vivo, po
MDA-MB-231 cells [15] = details: MDA-MB-231 monolayer scratch; UF010 at 1 μM
HepG2 cells [16] = assay: cells; details: Homo sapiens
in vivo = details: mouse, plasma, po, 80 mg/kg
[17] = Oral tolerability / maximal tolerated dose in mice; details: mouse
MDA-MB-468 cells = assay: Viability of MDA-MB-468 cells, with or without HDAC shRNA; details: for IC50: Homo sapiens

T2 sequence (Q92769 whole entry): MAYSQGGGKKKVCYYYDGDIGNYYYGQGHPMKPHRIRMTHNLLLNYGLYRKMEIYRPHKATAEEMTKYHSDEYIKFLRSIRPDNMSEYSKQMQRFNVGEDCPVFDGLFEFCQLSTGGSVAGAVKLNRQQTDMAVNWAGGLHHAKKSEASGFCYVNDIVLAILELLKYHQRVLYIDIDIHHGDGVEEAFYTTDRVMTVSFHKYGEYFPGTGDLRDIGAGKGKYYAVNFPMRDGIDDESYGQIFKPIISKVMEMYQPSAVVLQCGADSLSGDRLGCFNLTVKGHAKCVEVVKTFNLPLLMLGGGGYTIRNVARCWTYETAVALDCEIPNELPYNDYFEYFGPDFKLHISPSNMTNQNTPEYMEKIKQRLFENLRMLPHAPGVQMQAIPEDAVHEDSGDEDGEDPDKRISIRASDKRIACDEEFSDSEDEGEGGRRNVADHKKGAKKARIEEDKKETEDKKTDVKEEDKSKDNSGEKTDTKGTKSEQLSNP
T1 sequence (Q13547 whole entry): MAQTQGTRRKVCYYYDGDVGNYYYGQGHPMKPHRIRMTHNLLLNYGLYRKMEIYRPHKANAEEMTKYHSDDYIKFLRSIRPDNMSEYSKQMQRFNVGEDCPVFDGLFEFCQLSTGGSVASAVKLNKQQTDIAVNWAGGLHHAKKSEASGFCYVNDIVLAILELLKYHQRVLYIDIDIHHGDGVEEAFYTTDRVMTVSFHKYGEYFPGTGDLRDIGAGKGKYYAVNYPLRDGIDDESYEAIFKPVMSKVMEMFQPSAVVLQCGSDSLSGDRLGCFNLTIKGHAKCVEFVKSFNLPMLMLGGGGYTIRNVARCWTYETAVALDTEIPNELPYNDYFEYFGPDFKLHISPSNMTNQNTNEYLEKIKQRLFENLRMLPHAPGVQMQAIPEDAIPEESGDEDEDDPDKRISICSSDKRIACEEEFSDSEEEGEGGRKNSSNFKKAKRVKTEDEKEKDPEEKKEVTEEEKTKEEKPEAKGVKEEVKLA

CCCCNNC(=O)c1ccc(Br)cc1 [UF010, 4-bromo-N′-butylbenzohydrazide]
IC50 (HDAC1 [1]; Table 1, read-out: Inhibitory Potency (IC50) HDAC 1): 0.5 µM | IC50 (HDAC1 [1]; Table 2, read-out: HDAC 1 IC50): 0.5 µM | IC50 (HDAC2 [2]; Table 1, read-out: Inhibitory Potency (IC50) HDAC 2): 0.1 µM | IC50 (HDAC2 [2]; Table 2, read-out: HDAC 2 IC50): 0.1 µM | IC50 (HDAC3 [3]; Table 1, read-out: Inhibitory Potency (IC50) HDAC 3): 0.06 µM | IC50 (HDAC3 [3]; Table 2, read-out: HDAC 3 IC50): 0.06 µM | IC50 (HDAC8; Table 1, read-out: Inhibitory Potency (IC50) HDAC 8): 1.5 µM | IC50 (HDAC8; Table 2, read-out: HDAC 8 IC50): 1.5 µM | IC50 (HDAC6; Table 1, read-out: Inhibitory Potency (IC50) HDAC 6): 9.1 µM | IC50 (HDAC6; Table 2, read-out: HDAC 6 IC50): 9.1 µM | IC50 (HDAC10): 15.3 µM | IC50 (HDAC11): 44.5 µM | IC50 (HDAC4): > 100 µM | IC50 (HDAC7): > 100 µM | IC50 (HDAC9): > 100 µM | IC50 (HDAC1 [4]): 0.46 µM | IC50 (HDAC2 [5]): 1.33 µM | IC50 (HDAC3 [6]): 0.19 µM | IC50 (MDA-MB-231 cells [7]): 31 µM | Predicated activation state, Biological Functions (MDA-MB-231 cells [8]; Apoptosis): Activated | Predicated activation state, Upstream Regulators (MDA-MB-231 cells [8]; Butyric acid): Activated | Predicated activation state, Biological Functions (MDA-MB-231 cells [8]; Cell cycle progression): Suppressed | Predicated activation state, Biological Functions (MDA-MB-231 cells [8]; Cell survival): Suppressed | Predicated activation state, Upstream Regulators (MDA-MB-231 cells [8]; Cisplatin): Activated | Predicated activation state, Upstream Regulators (MDA-MB-231 cells [8]; ERK1/2): Activated | Predicated activation state, Upstream Regulators (MDA-MB-231 cells [8]; HDAC1): Suppressed | Predicated activation state, Upstream Regulators (MDA-MB-231 cells [8]; HDAC2): Suppressed | Predicated activation state, Upstream Regulators (MDA-MB-231 cells [8]; KRAS): Suppressed | number of genes downregulated by […] (MDA-MB-231 cells [8]; MDA-MB-231, 1 μM): 68 | number of genes upregulated by […] (MDA-MB-231 cells [8]; MDA-MB-231, 1 μM): 115 | Predicated activation state, Upstream Regulators (MDA-MB-231 cells [8]; MYCN): Suppressed | Predicated activation state, Upstream Regulators (MDA-MB-231 cells [8]; Myc): Suppressed | Predicated activation state, Biological Functions (MDA-MB-231 cells [8]; Necrosis): Activated | Predicated activation state, Biological Functions (MDA-MB-231 cells [8]; Proliferation of cells): Suppressed | Predicated activation state, Upstream Regulators (MDA-MB-231 cells [8]; Rb1): Activated | Predicated activation state, Biological Functions (MDA-MB-231 cells [8]; Repair of DNA): Suppressed | Predicated activation state, Upstream Regulators (MDA-MB-231 cells [8]; Romidepsin): Activated | Predicated activation state, Upstream Regulators (MDA-MB-231 cells [8]; TP53): Activated | Predicated activation state, Biological Functions (MDA-MB-231 cells [8]; Transcription of RNA): Suppressed | Predicated activation state, Upstream Regulators (MDA-MB-231 cells [8]; Tributyrin (butyrate)): Activated | Predicated activation state, Upstream Regulators (MDA-MB-231 cells [8]; Trichostatin A): Activated | Predicated activation state, Upstream Regulators (MDA-MB-231 cells [8]; fulvestrant): Activated | inhibition of cellular HDACs (H4K5ac, H3K18ac) (HCT116 cells [9]; HCT116, 0.5 μM, 24 h (FIG. 1B)): potent inhibition of cellular HDACs | accumulation of acetylated histones (HCT116 cells [9]; HCT116, 1 h exposure, TSA 0.2 μM, others 2 μM (FIG. 1A)): consistently induced the accumulation of acetylated histones at all sites examined | α-tubulin acetylation (HCT116 and A549 cells; HCT116 and A549, 1 h, TSA 0.2 μM, UF010 2 μM): little to no effect | accumulation of acetylated p53 (HCT116 and A549 cells; HCT116 and A549, after exposure to etoposide): induced accumulation of acetylated p53 | p53 stabilization (HCT116 and A549 cells; with or without etoposide treatment): notably stabilized p53 | time at which histone acetylation (H3K18ac) was induced (HCT116 cells [10]; HCT116, 6 h pulse exposure): ≤ 6 h | time up to which induced acetylation was maintained (HCT116 cells [10]; HCT116, 6 h pulse then drug washout, time after drug addition): up to 96 h | mode of HDAC inhibition (on/off) (HCT116 cells [10]; HCT116, washout experiment): fast-on but slow-off | cell cycle effect (MDA-MB-231 cells [11]): mainly blocked G1/S transition | potency of HDAC1 inhibition in vitro (HDAC1 [12]): < 10 µM | CDKN1A (p21) expression by quantitative real-time PCR (CDKN1A): activation of CDKN1A | reduction of cytotoxic potency by HDAC2 shRNA expression (HepG2 cells [13]): about 2 fold | abnormal physical or mental behaviors [14]: No signs | cell migration to the denuded areas (MDA-MB-231 cells [15]): markedly slowed migration | IC50 (HepG2 cells [16]; HepG2, read-out: IC50 Control): 4.6 µM | IC50 (HepG2 cells [16]; HepG2, read-out: IC50 HDAC1 shRNA): 5.9 µM | IC50 (HepG2 cells [16]; HepG2, read-out: IC50 HDAC2 shRNA): 10.9 µM | IC50 (HepG2 cells [16]; HepG2, read-out: IC50 HDAC3 shRNA): 1.3 µM | AUC (in vivo): 6.07 µM·h | Cmax (in vivo): 5.95 µM | Tmax (in vivo): 15 min | half-life (in vivo): 74.4 min | MTD ([17]; in vivo, po, 80 mg/kg): > 80 mg/kg | MTD ([17]; oral once daily): >80 mg/kg | IC50 (MDA-MB-468 cells; MDA-MB-468, read-out: IC50 Control): 16.1 µM | IC50 (MDA-MB-468 cells; MDA-MB-468, read-out: IC50 HDAC2 shRNA): 32.8 µM | reduction of cytotoxic potency by HDAC2 shRNA expression (MDA-MB-468 cells; MDA-MB-468): about 2 fold

Source: patent US10807944B2, “HDAC inhibitor compounds and methods of treatment” (priority 2014, dated 2020)
